Where two headings read alike, the source gives them in different places.
Legend:
[1] = test system: platelet aggregation induced by PAF; assay: Test 1-Inhibition of platelet aggregation induced by PAF (C18-PAF, 15 nM); type: cell-based, male New Zealand rabbits; details: rabbit platelet rich plasma, 15 nM C18-PAF, read-out: IC50 (concentration of drug required to inhibit platelet aggregatory response by 50%)
Method: Test 1-Inhibition of platelet aggregation induced by PAF.
Platelet rich plasma (PRP) was prepared by centrifuging the blood at 250xg for 10 min. at 4° C. PRP was diluted with platelet-poor plasma (PPP) obtained by further centrifuging at 3000xg for 10 min. The platelet count was adjusted to 3×10^5 cells/mm^3.

[2] = test system: PAF-induced hypotension in normotensive rats; assay: Test 2- Inhibition of PAF-induced hypotension in normotensive rats; type: in vivo, Male Sprague-Dawley rats; details: intravenous, 3 min. before PAF (0.5 μg/Kg); for ED50: Rattus norvegicus, 0.05 h, read-out: ID50 (dose of test compound required to inhibit hypotension by 50%)
Method: Test 2- Inhibition of PAF-induced hypotension in normotensive rats.
Male Sprague-Dawley rats, weighing 180-220 g, were anesthetized with sodium pentobarbital (50 mg/Kg i.p.). Blood pressure was recorded from the left carotid artery using a Statham pressure transducer coupled to a Beckman R611 recorder. Right and left femoral veins were catheterized to inject test compounds and PAF (0.5 μg/Kg). Test compounds were administered by intravenous injection (1 mL/Kg, dissolved in saline) 3 min. before PAF.
Blood pressure was monitored and percent inhibition of PAF-induced hypotension with respect to controls was calculated.

ulcerative colitis = details: cited from earlier work; for active moiety in ulcerative colitis: Azad Khan et al., Lancet 1977
[3] = after absorption from the colon; cited from earlier work

Row | Compound | IC50 ([1]; Oryctolagus cuniculus) [µM] | ED50 [2] [mg/kg] | other results
1 | Cc1nc2cnccc2n1CC1CCN(C(=O)CC(C)(C)c2ccc(N)cc2)CC1 [A, 1-[[1-[3-(4-Aminophenyl)-3-methylbutanoyl]-4-piperidyl]methyl]-1H-2-methylimidazo[4,5-c]pyridine] | 0.019 | 0.099 | –
2 | CCOC(=O)[C@H](CC(C)C)N(C(=O)c1ccc(N)cc1)S(=O)(=O)c1ccc(Cn2c(C)nc3cnccc32)cc1 [E, N-(4-Aminobenzoyl)-N-[4-(1H-2-methylimidazo[4,5-c]pyridylmethyl)phenylsulfonyl]-L-leucine ethyl ester] | 0.03 | 0.15 | –
3 | Cc1nc2cnccc2n1CC1CCN(C(=O)/C=C(/c2ccccc2)c2ccc(N)cc2)CC1 [B, cis-1-[[1-[3-(4-Aminophenyl)-3-phenylpropenoyl]-4-piperidyl]methyl]-1H-2-methylimidazo[4,5-c]pyridine] | – | – | IC50 [1]: 0.018 µM; ID50 (dose of test compound required to inhibit hypotension by 50%) [2]: 0.029 mg/kg
4 | Nc1ccc(O)c(C(=O)O)c1 [Compound 5-ASA, 5-aminosalicylic acid] | – | – | active moiety in ulcerative colitis (ulcerative colitis): in ulcerative colitis the active moiety is 5-ASA
5 | Cc1nc2cnccc2n1CC1CCN(C(=O)CN(c2ccccc2)S(=O)(=O)c2ccc(N)cc2)CC1 [D] | 0.075 | 0.088 | –
6 | CCOC[C@H](CC(C)C)N(Cc1ccc(N)cc1)S(=O)(=O)c1ccc(Cn2c(C)nc3cnccc32)cc1 [G, N-(4-Aminobenzyl)-N-[(S)-1-isobutyl-2-ethoxyethyl]-4-(1H-2-methylimidazo[4,5-c]pyridylmethyl)phenylsulfonamide] | 0.016 | 0.14 | –
7 | Cc1nc2cnccc2n1CC1CCN(C(=O)/C=C(\c2ccccc2)c2ccc(N)cc2)CC1 [C, trans-1-[[1-[3-(4-Aminophenyl)-3-phenylpropenoyl]-4-piperidyl]methyl]-1H-2-methylimidazo[4,5-c]pyridine] | – | – | IC50 [1]: 0.005 µM; ID50 (dose of test compound required to inhibit hypotension by 50%) [2]: 0.01 to 0.025 mg/kg
8 | CCOC(=O)[C@H](CC(C)C)N(Cc1ccc(N)cc1)S(=O)(=O)c1ccc(Cn2c(C)nc3cnccc32)cc1 [F, N-(4-Aminobenzyl)-N-[4-(1H-2-methylimidazo[4,5-c]pyridylmethyl)-phenylsulfonyl]-L-leucine ethyl ester] | 0.012 | 0.033 | –
9 | Nc1ccc(S(=O)(=O)Nc2ccccn2)cc1 [Sulfapyridine, sulfapyridine] | – | – | metabolism and excretion [3]: metabolised and excreted in the urine; active moiety in ulcerative colitis (ulcerative colitis): acts only as a carrier; side effects of sulfasalazine ascribed to the moiety (ulcerative colitis; Das et al., New Engl. J. Med. 1973): Most of the side effects of sulfasalazine have been ascribed to the sulfapyridine moiety

From patent US5747477A, “Azo derivatives of 5-aminosalicylic acid” (priority 1995, dated 1998)
